The values below are quoted from earlier work in patent publication US9920014B2, “Selective inhibition of bacterial topoisomerase I” (THE FLORIDA INTERNATIONAL BOARD OF TRUSTEES MODESTO A. …, priority 2013, dated 2018).

For orientation: IC50 means the concentration that gives 50% inhibition.

The target in this series is E. coli DNA topoisomerase I (Escherichia coli, UniProt P06612). Particulars: reported by Bansal et al. 2012; read-out: E. coli Topo I IC50 (literature value); cited from earlier work.
Sequence of E. coli DNA topoisomerase I (P06612 whole entry): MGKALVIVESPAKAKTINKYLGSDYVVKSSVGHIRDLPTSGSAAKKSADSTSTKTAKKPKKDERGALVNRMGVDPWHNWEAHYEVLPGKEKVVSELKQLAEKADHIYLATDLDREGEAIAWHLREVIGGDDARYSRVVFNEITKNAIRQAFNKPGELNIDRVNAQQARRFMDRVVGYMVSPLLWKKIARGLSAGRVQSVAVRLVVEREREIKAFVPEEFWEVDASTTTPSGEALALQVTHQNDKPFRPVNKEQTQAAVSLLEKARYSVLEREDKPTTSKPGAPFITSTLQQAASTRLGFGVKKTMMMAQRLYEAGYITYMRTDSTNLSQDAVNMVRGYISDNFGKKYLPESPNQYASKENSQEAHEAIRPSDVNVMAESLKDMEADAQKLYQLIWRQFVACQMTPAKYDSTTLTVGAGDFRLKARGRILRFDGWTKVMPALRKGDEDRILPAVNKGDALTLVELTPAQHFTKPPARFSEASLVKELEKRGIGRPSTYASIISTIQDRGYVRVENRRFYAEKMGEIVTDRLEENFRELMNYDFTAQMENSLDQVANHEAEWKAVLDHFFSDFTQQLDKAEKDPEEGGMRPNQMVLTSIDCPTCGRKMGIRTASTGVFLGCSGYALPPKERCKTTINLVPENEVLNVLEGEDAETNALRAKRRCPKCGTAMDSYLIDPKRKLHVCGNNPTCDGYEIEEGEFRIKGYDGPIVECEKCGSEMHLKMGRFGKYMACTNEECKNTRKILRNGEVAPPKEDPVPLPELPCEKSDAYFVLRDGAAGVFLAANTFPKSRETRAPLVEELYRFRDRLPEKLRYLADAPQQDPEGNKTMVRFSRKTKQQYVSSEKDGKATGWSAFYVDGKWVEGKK

Consider `COc1ccc(-c2nc3ccc(-c4nc5ccc(N6CCN(C)CC6)cc5[nH]4)cc3[nH]2)cc1OC` [DMA], for which the IC50 was 3.8 µM.
